According to patent US9359349B2, “Substituted quinazolines as kinase inhibitors” (Intellikine LLC, priority 2007, dated 2016):
Where two headings read alike, the source gives them in different places.

Key:
[1] = test system: PC-3; assay: Tumor cell line proliferation assay (Alamar Blue), PC-3; assay type: cell-based; details: Homo sapiens; PC-3 cells
Description: The ability of one or more subject compounds to inhibit tumor cell line proliferation is determined according to standard procedures known in the art. For instance, an in vitro cellular proliferation assay can be performed to measure the metabolic activity of live cells. The assay is performed in a 96 well microtiter plate using Alamar Blue reduction. Human tumor cell lines are obtained from ATCC (e.g., MCF7, U-87 MG, MDA-MB-468, PC-3), grown to confluency in T75 flasks, trypsinized with 0.25% trypsin, washed one time with Tumor Cell Media (DMEM+10% FBS), and plated in 90 ul at 5,000 cells/well in Tumor Cell Media. A compound disclosed herein is diluted in Tumor Cell Media and added in a 10 ul volume. Plates are incubated for 72 hours at 37 C and 5% CO2. A volume of 10 uL of Alamar Blue reagent is added to each well and plates are incubated for 3 hours at 37 C and 5% CO2. Alamar Blue fluoresce is read at 560Ex/590Em, and IC50 values are calculated using GraphPad Prism 5.

[2] = target: T1, PI3K δ (p110δ/p85α) (Homo sapiens, UniProt O00329); assay: PI3K δ (p110δ/p85α) inhibition assay; assay type: biochemical
T1 construct: purchased Upstate
Description: (§1) IC50 values are measured using either a standard TLC assay for lipid kinase activity (described below) or a high-throughput membrane capture assay. Kinase reactions are performed by preparing a reaction mixture containing kinase, inhibitor (2% DMSO final concentration), buffer (25 mM HEPES, pH 7.4, 10 mM MgCl2), and freshly sonicated phosphatidylinositol (100 μg/ml). Reactions are initiated by the addition of ATP containing 10 μCi of γ-32P-ATP to a final concentration 10 or 100 μM and allowed to proceed for 5 minutes at room temperature. For TLC analysis, reactions are then terminated by the addition of 105 μl 1N HCl followed by 160 μl CHCl3:MeOH (1:1). The biphasic mixture is vortexed, briefly centrifuged, and the organic phase is transferred to a new tube using a gel loading pipette tip precoated with CHCl3. This extract is spotted on TLC plates and developed for 3-4 hours in a 65:35 solution of n-propanol: 1M acetic acid. The TLC plates are then dried, exposed to a phosphorimager screen (Storm, Amersham), and quantitated.
(§2) Other commercial kits or systems for assaying PI3-K activities are avaiable. The commercially available kits or systems can be used to screen for inhibitors and/or agonists of PI3-Ks including but not limited to PI 3-Kinase α, β, δ, and γ. Anr exemplary system is PI 3-Kinase (human) HTRF™ Assay from Upstate. […] Briefly, the assay is a time resolved FRET assay that indirectly measures PIP3 product formed by the activity of a PI3-K. The kinase reaction is performed in a microtitre plate (e.g., a 384 well microtitre plate). The total reaction volume is approximately 20 ul per well. In the first step, each well receives 2 ul of test compound in 20% dimethylsulphoxide resulting in a 2% DMSO final concentration. Next, approximately 14.5 ul of a kinase/PIP2 mixture (diluted in 1× reaction buffer) is added per well for a final concentration of 0.25-0.3 ug/ml kinase and 10 uM PIP2. The plate is sealed and incubated for 15 minutes at room temperature. To start the reaction, 3.5 ul of ATP (diluted in 1× reaction buffer) is added per well for a final concentration of 10 uM ATP. The plate is sealed and incubated for 1 hour at room temperature. The reaction is stopped by adding 5 ul of Stop Solution per well and then 5 ul of Detection Mix is added per well. The plate is sealed, incubated for 1 hour at room temperature, and then read on an appropriate plate reader. Data is analyzed and IC50s are generated using GraphPad Prism 5.

[3] = target: T2, PI3K α (p110α/p85α) (Homo sapiens, UniProt P42336); assay: PI3K α (p110α/p85α) inhibition assay; assay type: biochemical
T2 construct: purchased Upstate
T2 sequence (P42336 whole entry): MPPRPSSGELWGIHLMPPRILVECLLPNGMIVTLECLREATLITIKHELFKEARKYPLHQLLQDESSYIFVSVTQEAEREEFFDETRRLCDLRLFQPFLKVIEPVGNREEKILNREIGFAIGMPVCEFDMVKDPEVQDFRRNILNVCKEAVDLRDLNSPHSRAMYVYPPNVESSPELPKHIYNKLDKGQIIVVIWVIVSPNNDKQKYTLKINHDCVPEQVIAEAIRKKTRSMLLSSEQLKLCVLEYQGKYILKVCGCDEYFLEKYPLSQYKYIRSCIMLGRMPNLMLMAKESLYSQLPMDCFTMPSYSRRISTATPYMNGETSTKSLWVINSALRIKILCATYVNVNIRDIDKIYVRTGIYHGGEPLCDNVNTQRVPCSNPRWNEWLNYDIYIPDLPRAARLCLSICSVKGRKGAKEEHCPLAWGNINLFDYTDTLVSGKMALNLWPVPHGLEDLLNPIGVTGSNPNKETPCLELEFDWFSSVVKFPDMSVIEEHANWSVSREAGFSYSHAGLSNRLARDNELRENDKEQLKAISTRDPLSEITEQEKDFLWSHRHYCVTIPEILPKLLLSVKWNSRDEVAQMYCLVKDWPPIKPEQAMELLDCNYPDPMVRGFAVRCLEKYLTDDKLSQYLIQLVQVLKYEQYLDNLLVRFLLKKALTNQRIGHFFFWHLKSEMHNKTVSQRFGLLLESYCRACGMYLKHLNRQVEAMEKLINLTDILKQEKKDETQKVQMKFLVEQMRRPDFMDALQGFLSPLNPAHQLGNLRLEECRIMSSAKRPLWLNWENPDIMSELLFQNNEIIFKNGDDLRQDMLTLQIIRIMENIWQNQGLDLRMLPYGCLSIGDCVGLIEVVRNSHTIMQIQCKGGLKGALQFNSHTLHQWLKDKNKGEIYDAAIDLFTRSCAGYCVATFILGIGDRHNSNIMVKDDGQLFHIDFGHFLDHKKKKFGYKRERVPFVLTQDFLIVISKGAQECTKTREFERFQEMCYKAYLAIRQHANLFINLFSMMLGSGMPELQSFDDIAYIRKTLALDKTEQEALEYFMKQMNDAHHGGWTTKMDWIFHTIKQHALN
T2 sequence (P27986 whole entry partner): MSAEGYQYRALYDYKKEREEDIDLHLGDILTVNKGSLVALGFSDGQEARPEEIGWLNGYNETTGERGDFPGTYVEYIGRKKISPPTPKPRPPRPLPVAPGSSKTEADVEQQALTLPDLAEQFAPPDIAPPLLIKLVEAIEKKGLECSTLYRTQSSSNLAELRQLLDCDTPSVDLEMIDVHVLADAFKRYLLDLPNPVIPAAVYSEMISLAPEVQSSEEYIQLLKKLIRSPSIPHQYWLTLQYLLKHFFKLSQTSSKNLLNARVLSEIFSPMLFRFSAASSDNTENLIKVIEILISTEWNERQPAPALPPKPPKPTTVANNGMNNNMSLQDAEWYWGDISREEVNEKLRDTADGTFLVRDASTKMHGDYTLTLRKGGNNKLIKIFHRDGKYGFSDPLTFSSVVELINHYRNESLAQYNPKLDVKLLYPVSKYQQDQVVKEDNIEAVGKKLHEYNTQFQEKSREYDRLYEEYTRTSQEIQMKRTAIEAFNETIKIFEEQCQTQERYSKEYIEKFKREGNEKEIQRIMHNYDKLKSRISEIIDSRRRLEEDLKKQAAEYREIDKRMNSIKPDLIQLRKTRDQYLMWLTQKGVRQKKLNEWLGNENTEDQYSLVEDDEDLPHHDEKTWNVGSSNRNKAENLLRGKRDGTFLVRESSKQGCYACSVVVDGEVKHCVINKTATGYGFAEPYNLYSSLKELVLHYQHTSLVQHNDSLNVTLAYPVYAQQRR
Description: as §1, with “Class I PI3-Ks can be either purchased (p110α/p85α, p110β/p85α, p110δ/p85α from Upstate, and p110γ from Sigma) or expressed as previously described (Knight at al., 2004). IC50” for “IC50”, “quantitated. For each compound, kinase activity is measured at 10-12 inhibitor concentrations representing two-fold dilutions from the highest concentration tested (typically, 200 μM).” for “quantitated.”
as §2

[4] = target: T3, PI3K β (p110β/p85α) (Homo sapiens, UniProt P42338); assay: PI3K β (p110β/p85α) inhibition assay; assay type: biochemical
T3 construct: purchased Upstate
Description: as §1, with “Class I PI3-Ks can be either purchased (p110α/p85α, p110β/p85α, p110δ/p85α from Upstate, and p110γ from Sigma) or expressed as previously described (Knight at al., 2004). IC50” for “IC50”, “quantitated. For each compound, kinase activity is measured at 10-12 inhibitor concentrations representing two-fold dilutions from the highest concentration tested (typically, 200 μM).” for “quantitated.”
as §2

[5] = target: T4, mTOR (Homo sapiens, UniProt P42345); assay: mTOR inhibition assay; assay type: biochemical
T4 construct: purchased Invitrogen
T4 sequence (P42345 1360-2549 limits assumed): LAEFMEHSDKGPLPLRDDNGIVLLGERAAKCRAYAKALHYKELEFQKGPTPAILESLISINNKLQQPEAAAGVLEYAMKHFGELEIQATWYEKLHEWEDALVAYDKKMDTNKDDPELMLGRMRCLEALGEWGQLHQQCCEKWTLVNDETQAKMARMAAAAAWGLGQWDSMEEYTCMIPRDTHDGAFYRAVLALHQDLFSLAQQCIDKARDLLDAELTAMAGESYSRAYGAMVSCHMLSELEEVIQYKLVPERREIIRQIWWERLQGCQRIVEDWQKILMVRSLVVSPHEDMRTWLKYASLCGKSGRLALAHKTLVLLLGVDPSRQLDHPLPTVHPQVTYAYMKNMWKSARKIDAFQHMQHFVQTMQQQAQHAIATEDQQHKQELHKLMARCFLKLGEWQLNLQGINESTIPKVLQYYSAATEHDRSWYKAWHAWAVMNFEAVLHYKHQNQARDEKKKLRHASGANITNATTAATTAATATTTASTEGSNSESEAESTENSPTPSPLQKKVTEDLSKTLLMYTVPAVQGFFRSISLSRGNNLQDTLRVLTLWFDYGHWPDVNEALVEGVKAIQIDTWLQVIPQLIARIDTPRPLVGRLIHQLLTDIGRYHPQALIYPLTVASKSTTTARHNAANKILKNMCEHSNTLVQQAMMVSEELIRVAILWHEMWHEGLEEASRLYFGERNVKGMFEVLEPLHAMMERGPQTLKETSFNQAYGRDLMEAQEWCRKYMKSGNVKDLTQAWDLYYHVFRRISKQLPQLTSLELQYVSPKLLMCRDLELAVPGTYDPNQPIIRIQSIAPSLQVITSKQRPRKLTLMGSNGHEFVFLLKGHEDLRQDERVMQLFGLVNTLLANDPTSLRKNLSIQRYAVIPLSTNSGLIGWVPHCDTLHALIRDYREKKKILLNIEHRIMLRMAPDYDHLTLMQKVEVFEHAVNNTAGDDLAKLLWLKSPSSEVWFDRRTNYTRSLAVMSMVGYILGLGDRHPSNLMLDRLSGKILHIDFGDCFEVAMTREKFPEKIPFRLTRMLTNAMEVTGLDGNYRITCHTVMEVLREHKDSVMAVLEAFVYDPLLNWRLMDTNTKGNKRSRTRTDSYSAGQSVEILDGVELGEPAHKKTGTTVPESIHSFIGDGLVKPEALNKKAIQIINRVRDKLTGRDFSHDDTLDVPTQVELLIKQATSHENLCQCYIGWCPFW
Description: The compounds described herein can be tested against recombinant mTOR (Invitrogen) in an assay containing 50 mM HEPES, pH 7.5, 1 mM EGTA, 10 mM MgCl2, 2.5 mM, 0.01% Tween, 10 μM ATP (2.5 μCi of […]), and 3 μg/mL BSA. Rat recombinant PHAS-1/4EBP1 (Calbiochem; 2 mg/mL) is used as a substrate. Reactions are terminated by spotting onto nitrocellulose, which is washed with 1M NaCl/1% phosphoric acid (approximately 6 times, 5-10 minutes each). Sheets are dried and the transferred radioactivity quantitated by phosphorimaging.
Other kits or systems for assaying mTOR activity are commercially avaiable. For instance, one can use Invitrogen's LanthaScreen™ Kinase assay to test the inhibitors of mTOR disclosed herein. This assay is a time resolved FRET platform that measures the phosphorylation of GFP labeled 4EBP1 by mTOR kinase. The kinase reaction is performed in a white 384 well microtitre plate. The total reaction volume is 20 ul per well and the reaction buffer composition is 50 mM HEPES pH7.5, 0.01% Polysorbate 20, 1 mM EGTA, 10 mM MnCl2, and 2 mM DTT. In the first step, each well receives 2 ul of test compound in 20% dimethylsulphoxide resulting in a 2% DMSO final concentration. Next, 8 ul of mTOR diluted in reaction buffer is added per well for a 60 ng/ml final concentration. To start the reaction, 10 ul of an ATP/GFP-4EBP1 mixture (diluted in reaction buffer) is added per well for a final concentration of 10 uM ATP and 0.5 uM GFP-4EBP1. The plate is sealed and incubated for 1 hour at room temperature. The reaction is stopped by adding 10 ul per well of a Tb-anti-pT46 4EBP1 antibody/EDTA mixture (diluted in TR-FRET buffer) for a final concentration of 1.3 nM antibody and 6.7 mM EDTA. The plate is sealed, incubated for 1 hour at room temperature, and then read on a plate reader set up for LanthaScreen™ TR-FRET. Data is analyzed and IC50s are generated using GraphPad Prism 5.

[6] = target: T5, PI3K γ (p110γ) (Homo sapiens, UniProt P48736); assay: PI3K γ (p110γ) inhibition assay; assay type: biochemical
T5 construct: purchased Sigma
T5 sequence (P48736 whole entry): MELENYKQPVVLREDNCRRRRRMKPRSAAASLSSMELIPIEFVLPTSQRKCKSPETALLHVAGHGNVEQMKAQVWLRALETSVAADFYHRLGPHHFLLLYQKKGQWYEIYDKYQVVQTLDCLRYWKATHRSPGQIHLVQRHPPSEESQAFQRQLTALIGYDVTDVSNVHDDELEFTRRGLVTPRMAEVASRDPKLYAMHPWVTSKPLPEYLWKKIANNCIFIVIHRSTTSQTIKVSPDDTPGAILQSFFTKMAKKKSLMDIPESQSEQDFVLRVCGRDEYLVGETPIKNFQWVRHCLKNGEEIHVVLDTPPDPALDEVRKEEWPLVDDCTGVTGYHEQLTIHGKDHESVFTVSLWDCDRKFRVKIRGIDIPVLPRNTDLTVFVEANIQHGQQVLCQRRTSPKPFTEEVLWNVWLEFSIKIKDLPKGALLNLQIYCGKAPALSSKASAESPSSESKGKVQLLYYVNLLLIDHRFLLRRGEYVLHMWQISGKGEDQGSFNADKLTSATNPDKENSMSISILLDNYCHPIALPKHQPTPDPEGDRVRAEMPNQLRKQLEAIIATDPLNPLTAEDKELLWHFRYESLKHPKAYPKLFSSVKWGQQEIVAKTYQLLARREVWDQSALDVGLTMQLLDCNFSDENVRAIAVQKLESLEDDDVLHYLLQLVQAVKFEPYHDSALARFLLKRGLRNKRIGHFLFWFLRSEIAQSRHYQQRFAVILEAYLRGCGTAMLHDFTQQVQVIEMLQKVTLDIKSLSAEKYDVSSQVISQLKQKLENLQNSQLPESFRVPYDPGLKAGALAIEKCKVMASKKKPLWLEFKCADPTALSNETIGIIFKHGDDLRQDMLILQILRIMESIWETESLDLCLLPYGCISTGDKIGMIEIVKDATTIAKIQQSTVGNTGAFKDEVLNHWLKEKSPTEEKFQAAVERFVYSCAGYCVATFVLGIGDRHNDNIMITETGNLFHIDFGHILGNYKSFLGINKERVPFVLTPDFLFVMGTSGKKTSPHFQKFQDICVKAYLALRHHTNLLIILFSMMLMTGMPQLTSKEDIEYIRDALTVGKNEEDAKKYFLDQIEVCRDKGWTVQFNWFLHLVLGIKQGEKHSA
Description: as §1, with “Class I PI3-Ks can be either purchased (p110α/p85α, p110β/p85α, p110δ/p85α from Upstate, and p110γ from Sigma) or expressed as previously described (Knight at al., 2004). IC50” for “IC50”, “quantitated. For each compound, kinase activity is measured at 10-12 inhibitor concentrations representing two-fold dilutions from the highest concentration tested (typically, 200 μM).” for “quantitated.”
as §2

CNc1nc(C)c2cc(-c3cccc(O)c3)ccc2n1 [Compound 1]
EC50 [1]: ≤ 50000 nM
IC50 ([2]; read-out: PI3K δ IC50): < 500 nM
IC50 [3]: < 500 nM
IC50 [4]: > 1000 nM
IC50 [5]: > 1000 nM
IC50 [6]: < 100 nM

CNc1nc(C)c2cc(-c3cnc4[nH]ccc4c3)ccc2n1 [Compound 2]
EC50 [1]: ≤ 50000 nM
IC50 ([2]; read-out: PI3K δ IC50): > 1000 nM
IC50 [3]: < 1000 nM
IC50 [4]: > 1000 nM
IC50 [5]: > 1000 nM
IC50 [6]: < 500 nM

Nc1ncc2cc(-c3cccc(O)c3)ccc2n1 [Compound 3]
EC50 [1]: ≤ 50000 nM
IC50 [3]: < 500 nM
IC50 [5]: > 1000 nM

Cc1nc(N)nc2ccc(-c3cccc(O)c3)cc12 [Compound 4]
EC50 [1]: ≤ 20000 nM
IC50 ([2]; read-out: PI3K δ IC50): < 100 nM
IC50 [3]: < 500 nM
IC50 [4]: < 500 nM
IC50 [5]: > 1000 nM
IC50 [6]: < 100 nM

Cc1nc(N)nc2ccc(-c3cnc4[nH]ccc4c3)cc12 [Compound 5]
EC50 [1]: ≤ 50000 nM
IC50 [3]: < 1000 nM
IC50 [5]: > 1000 nM

Cc1nc(Nc2cccnc2)nc2ccc(-c3cccc(O)c3)cc12 [Compound 6]
EC50 [1]: ≤ 50000 nM
IC50 ([2]; read-out: PI3K δ IC50): < 100 nM
IC50 [3]: < 100 nM
IC50 [4]: > 1000 nM
IC50 [5]: > 1000 nM
IC50 [6]: < 100 nM

Cc1nc(Nc2cccnc2)nc2ccc(-c3cc(O)cc(F)c3)cc12 [Compound 7]
EC50 [1]: ≤ 20000 nM
IC50 ([2]; read-out: PI3K δ IC50): < 100 nM
IC50 [3]: < 100 nM
IC50 [4]: > 1000 nM
IC50 [5]: > 1000 nM
IC50 [6]: < 100 nM

CNc1nc(C)c2cc(-c3cc(O)cc(F)c3)ccc2n1 [Compound 8]
EC50 [1]: ≤ 20000 nM
IC50 [2]: < 100 nM
IC50 [3]: < 500 nM
IC50 [4]: < 1000 nM
IC50 [5]: > 1000 nM
IC50 [6]: < 100 nM

CNc1nc(C)c2cc(-c3ccc(F)c(O)c3)ccc2n1 [Compound 9]
EC50 [1]: ≤ 20000 nM
IC50 [3]: < 1000 nM
IC50 [5]: > 1000 nM

CNc1nc(C)c2cc(-c3ccc(O)c(Cl)c3)ccc2n1 [Compound 10]
EC50 [1]: ≤ 20000 nM
IC50 [3]: < 1000 nM
IC50 [5]: > 1000 nM

CNc1nc(C)c2cc(-c3ccc(O)c(F)c3)ccc2n1 [Compound 11]
EC50 [1]: ≤ 50000 nM
IC50 [3]: < 1000 nM
IC50 [5]: > 1000 nM
